Source: patent US9056891B2, “Synthetic peptide inhibitors of Wnt pathway” (The United States of America, as represented by the …, priority 2010, dated 2015)
Where a SMILES comes first, the peptide text is derived from it. [ ]: non-standard residue; d: D form. The star is where a group is joined. Palmitoyl = CCCCCCCCCCCCCCCC(=O)*

How the values were obtained:
[1] = test system: 4T1 mouse breast cancer cells; test: Colony formation by 4T1 cells; assay type: cell-based; conditions: 5 μM and 10 μM
From the text: The activity of compounds in inhibiting colony formation by 4T1 cells was also investigated, which test provides a prediction for compound's potency in vivo.

[2] = test system: RKO, HT-29, HCT-116, SW-480, and SW-620 cells; test: Cell viability of colon cancer cells (FIGS. 2A-C); assay type: cell-based; conditions: increasing concentrations, HT-29, HCT-116, SW-480, SW-620
Experimental: The concentration (μM) of the peptide inhibitor is indicated on the x-axis and the percent viability is indicated on the y-axis.
A similar experiment was performed using RKO, HT-29, HCT-116, SW-480, and SW-620 cells. Colorectal adenocarcinoma SW-480 and SW-620 cells have truncated APC protein, which—as discussed above—is a common cause of canonical Wnt pathway activation in colon malignancies.

GFP-tagged beta-catenin = target: T1, GFP-tagged beta-catenin (Homo sapiens, UniProt P35222); test: Microscale thermophoresis of GFP-tagged beta-catenin; assay type: binding; conditions: HEK293 lysate, membrane-mimicking bicelles, Hill fit
T1 construct: made in house; host or cells: HEK293 cells (unpurified lysate)
T1 sequence (P35222 1-781): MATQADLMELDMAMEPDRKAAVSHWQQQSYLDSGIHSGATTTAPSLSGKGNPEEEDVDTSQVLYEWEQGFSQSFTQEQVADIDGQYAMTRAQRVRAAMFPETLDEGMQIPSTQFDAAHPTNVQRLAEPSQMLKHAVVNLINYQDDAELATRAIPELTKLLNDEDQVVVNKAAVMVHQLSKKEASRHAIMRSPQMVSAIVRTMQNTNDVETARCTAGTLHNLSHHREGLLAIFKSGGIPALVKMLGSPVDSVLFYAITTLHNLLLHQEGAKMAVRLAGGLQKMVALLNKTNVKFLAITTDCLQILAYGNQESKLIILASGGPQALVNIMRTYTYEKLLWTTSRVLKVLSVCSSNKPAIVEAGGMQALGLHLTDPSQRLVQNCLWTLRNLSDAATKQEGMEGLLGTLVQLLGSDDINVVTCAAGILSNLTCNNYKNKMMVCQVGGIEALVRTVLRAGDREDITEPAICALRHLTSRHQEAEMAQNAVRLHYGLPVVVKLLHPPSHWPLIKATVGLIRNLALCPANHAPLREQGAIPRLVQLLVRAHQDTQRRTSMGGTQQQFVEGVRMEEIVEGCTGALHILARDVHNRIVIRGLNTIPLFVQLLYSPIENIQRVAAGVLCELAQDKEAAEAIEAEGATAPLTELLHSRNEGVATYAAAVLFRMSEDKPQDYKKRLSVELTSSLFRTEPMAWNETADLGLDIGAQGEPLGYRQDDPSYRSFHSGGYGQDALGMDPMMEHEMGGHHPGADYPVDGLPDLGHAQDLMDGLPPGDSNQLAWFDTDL
Experimental: Briefly, beta-catenin was overexpressed as a GFP-fusion in HEK293 cells. The cells were lysed with ultrasound, and the resulting lysate was mixed with increasing concentrations of CT-HC-5 in the presence of membrane-mimicking bicelles. Thermophoretic mobility was measured in standard capillaries on Monolith NT.115 (NanoTemper Technologies).

U3A cells = assay type: cell-based; conditions: 48 h
Experimental: (§1) HeLa, U3A, RKO, HCT-116, and HT-29 cells were exposed to the CT-HC-1, CT-HC-3, CT-HC-5, and CT-HC-8 inhibitors of Example 1 for 48 hours in medium containing 1% bovine fetal serum, and the resulting cell number was evaluated using a MTT assay. Each of these cell lines is relevant to the evaluation of Wnt signaling. Cervical carcinoma HeLa cells overexpress β-catenin (see, e.g., Lee et al., Int. J. Cancer, 124(2): 287-297 (2009); and Lee et al., Gynecol. Oncol., 109(2): 270-274 (2008)). β-catenin is activated in colon carcinoma RKO due to mutation in CDX2 (see, e.g., Dang et al., Oncogene, 20(35): 4884-4890 (2001)). Colon adenocarcinoma HCT116 has elevated mutated β-catenin; however, it was found in the past to be resistant to down regulation of β-catenin (see, e.g., Chan et al., Proc. Natl. Acad. Sci. USA, 99(12): 8265-8270 (2002); and Handeli et al., Mol. Cancer Ther., 7(3): 521-529 (2008)). Colon carcinoma HT-29 has truncated adenomatous polyposis coli (APC) protein, which is a common cause of canonical Wnt pathway activation in colon malignancies. Fibrosarcoma U3A cells are STAT1-negative and have uncharacterized status of Wnt pathway.
(§2) The ability of CT-HC-1 to inhibit growth and to kill cancer cells at different concentrations was further investigated in HeLa, U3A, RKO, HCT-116, and HT-29 cells. The cells were stained with Promega Non-Radioactive Cell Proliferation Assay Kit (MTT) according to the manufacture's protocol. The absorbance of the wells was determined at 544 nm by a FLUOstar/POLARstar Galaxy (BMG Lab Technologies GmbH) Microplate Reader. The assays were performed on control (C) and test (T) cells. Untreated cells were used as a control. Cellular responses were calculated from the data using the following formula: 100×[(T−T0)/(C−T0)] for T>T0 and 100×[(T−T0)/T0] for T<T0. T0 corresponds to cell density at the time of drug addition.

RKO cells = assay type: cell-based; conditions: 48 h
Experimental: as §1, §2

HeLa cells = assay type: cell-based; conditions: 48 h
Experimental: as §1, §2

HT-29 cells = assay type: cell-based; conditions: 48 h
Experimental: as §1, §2

4T1 cells = test: Toxicity (growth inhibition) for 4T1 cells; assay type: cell-based, mouse
Experimental: To identify a mouse model for preclinical development of compounds, mouse cell lines were tested for (1) growth inhibition by the compounds and (2) the levels of constitutive Wnt signaling TCF-reporter activity using transfection of cell with TCF/LEF-responsive firefly luciferase construct. The data further confirmed that sensitivity to compounds correlated well with the levels of canonical Wnt signaling.
Based on the data, mouse breast cancer cell line 4T1 was selected for in vivo testing.
(§3) Further optimization and testing of inhibitors was performed using this cell line. Table 5 presents toxicity data for select inhibitors for 4T1 cells and human colon cancer cell line SW-480, wherein GI50 is the concentration providing 50% growth inhibition and TGI is the total growth inhibition.

SW480 cells = test: Toxicity (growth inhibition) for SW-480 cells; assay type: cell-based, human; parameters: unit not given here
Experimental: as §3

HCT-116 cells = assay type: cell-based, human; conditions: 48 h
Experimental: as §1, §2

CCCCCCCCCCCCCCCC(=O)N[C@@H](C(=O)N[C@H](CCCNC(=N)N)C(=O)N[C@H](Cc1ccccc1)C(=O)N[C@H](CC(C)C)C(=O)N[C@H](CO)C(=O)N[C@H](CO)C(=O)N[C@@H](C(=O)N[C@H](CC(C)C)C(=O)N[C@H](CCC(=O)O)C(=O)N[C@@H](C(=O)N[C@H](CO)C(=O)N[C@H](CC(C)C)C(=O)N[C@H](CCCNC(=N)N)C(=O)N[C@H](CCCCN)C(=O)N[C@H](CCCCN)C(N)=O)C(C)C)[C@H](C)O)[C@H](C)O [CT-HC-5, Pal-TRFLSSTLEVSLRKK-NH2] (Palmitoyl-[dT][dR][dF][dL][dS][dS][dT][dL][dE][dV][dS][dL][dR][dK][dK]-NH2)
colony formation by 4T1 cells [1]: inhibited colony formation
cell viability [2]: suppression of cell viability
Kd (GFP-tagged beta-catenin): 2.7 ± 0.2 µM
GI50 (U3A cells): 1.5 ± 0.1 µM
GI50 (RKO cells): 1.15 ± 0.05 µM
GI50 (HeLa cells): 1.2 ± 0.09 µM
GI50 (HT-29 cells): 2 ± 0.1 µM
4T1 cells TGI (total growth inhibition) (4T1 cells): > 5 µM
SW480 cells TGI (total growth inhibition) (SW480 cells): 2.5
GI50 (HCT-116 cells): 2.4 ± 0.4 µM
